# Measured values: patent US20210154317A1, “COMPOSITIONS AND METHODS FOR THE TREATMENT OF VIRAL INFECTIONS” (Silverback Therapeutics, Inc., priority 2017, published 2021)
# System: monax PBMC
# Assay: Marmota TNFα expression in stimulated PBMC by real time PCR
# Type: cell-based
# Conditions: TaqMan real time PCR
# Procedure: Total RNA was extracted from stimulated monax PBMC using the RNeasy®Mini kit (Qiagen, Maryland, MD) according to the manufacturer's protocol. Briefly, cells were pelleted and resuspended in 600 ul RLT buffer. The sample was vortexed and then run through a QIAshredder column. RNA was extracted from the supernatant and eluted with a 30 uL volume. RNA purity was assessed (A260/A280) using a Nanodrop one spectrophotometer (Thermofisher Scientific, Waltham, Mass., USA). For removal of genomic DNA, 800 ng RNA was incubated with 2 units DNase I (RNase-free) (New England Biolabs, Ipswich, Mass., USA) in DNase reaction buffer at 37° C. for 10 min. […]
# The generation of oligonucleotide dimers for each TaqMan primer pair was assessed using Power SYBR®Green PCR Master-Mix (Foster City, Calif., Applied Biosystems) with melting curve analysis, according to the manufacturer's instructions. […] Data were analyzed using the Step One Software to generate Ct value for each sample.
# A plot of Ct versus log copy number standard curve was generated using synthesized monax TNFα cDNA standard. The Ct value for each data point was then determined and normalized to the standard curve to obtain the copy number. […]
row,Compound,monax TNFα gene activation (copy number per ng of mRNA)
1,CCOCc1nc2c(N)nc3ccccc3c2n1CC(C)(C)OCCNC(=O)C(C)(C)N,potent activation
2,"CCCN(CCC)C(=O)C1=Cc2ccc(C(=O)Nc3cnc4c(c3)CNCC4)cc2N=C(N)C1 [Compound 1.50, 2-amino-N^4,N^4-dipropyl-N^8-(5,6,7,8-tetrahydro-1,6-naphthyridin-3-yl)-3H-benzo[b]azepine-4,8-dicarboxamide]",potent activation
